Data set [1] deals with Human oral epidermoid carcinoma KB cells. In words: Cell growth inhibition assay (methylene blue dye), KB cells. The format is cell-based. The conditions noted are these: KB cells. How it is done:
(§1) Anticancer activities of the aryl substituted sulfonamide compounds synthesized in the above examples were evaluated by testing their inhibitory effects on mammalian cancer cell growth.
(§2) Human oral epidermoid carcinoma KB cells, non small cell lung carcinoma H460 cells, colorectal carcinoma HT29 cells, and stomach carcinoma MKN45 cells were maintained in RPMI-1640 medium supplied with 5% fetal bovine serum. The cells were treated with the test compound at various concentrations for 72 h.

In data set [2] the test system is non small cell lung carcinoma H460 cells. Nature of the data set: Cell growth inhibition assay (methylene blue dye), H460 cells. The format is cell-based. The conditions noted are these: Homo sapiens, NCI-H460, 72 h, read-out: Cell type (IC50 ± SD, nM) H460 (lung). How it is done:
as §1, §2

Data set [3] deals with stomach carcinoma MKN45 cells. Nature of the data set: Cell growth inhibition assay (methylene blue dye), MKN45 cells. The format is cell-based. The conditions noted are these: Homo sapiens, MKN-45, 72 h, read-out: Cell type (IC50 ± SD, nM) MKN45 (stomach). As for the experimental part: as §1, §2
The test system of another data set is KB-VIN10 cells. Nature of the data set: Cell growth inhibition assay on multidrug resistant KB-VIN10 cells. The conditions noted are these: Homo sapiens; KB-VIN10 (P-gp170/MDR overexpression), 72 h, methylene blue; read-out: IC50, growth inhibition of KB-VIN10 cells. In kind it is cell-based. As for the experimental part:
Cell in logarithmic phase were cultured at a density of 5000 cells/mL/well in a 24-well plate. KB-VIN10 cells were cultured in a medium free of test compound for 3 days prior to use. The cells were treated with the test compound at various concentrations for 72 h. The effect of the test compound on cell growth was evaluated using the methylene blue dye assay. […] KB-CPT100 and KB-CPT300 cells were generated by camptothecin-driven selection. […] (See Liou, J. P. et al J. Med. Chem. 2004, 47, 4247-4257 and Kuo, C. C. et al. Cancer Res. 2004, 64, 4621-4628.) Anticancer activities of the aryl substituted sulfonamide compounds synthesized in the above examples were evaluated by testing their inhibitory effects on these drug-resistant cell lines. Compound 24 was tested in this assay.

[4] abbreviates: 72 h, methylene blue dye assay, read-out: Cell type (IC50 ± SD, nM) KB (oral).
Where [5] appears, read: bands, read-out: IC50, inhibiting proliferation of KB cells (band).

The structures appear in SMILES notation. Read-outs that look alike come from different tables or passages of the source.

`COc1ccc(S(=O)(=O)N2CCc3cccc(-c4ccc(C#N)cc4)c32)cc1` [Compound 17, 4-[1-(4-methoxy-benzenesulfonyl)-2,3-dihydro-1H-indol-7-yl]-benzonitrile] had a melting point of 157.2 to 158.9 °C. Besides, the IC50 in data set [1] (setting [4]) came to 31.1 ± 5.4 nM. Besides, the IC50 in data set [1] (setting [5]) lay within 1 to 99 nM. Further, the IC50 in data set [2] was determined as 29.5 ± 14.8 nM. The IC50 in data set [3] is 17.2 ± 8.6 nM.

Regarding `COc1ccc(S(=O)(=O)Nc2cccnc2Nc2ccc(O)cc2)cc1` [ABT-751, reference compound], the IC50 was found to be 251 ± 65 nM in data set [1] (setting [4]), 385 nM with KB-VIN10 cells, 218 ± 4 nM in data set [2] and 166 ± 8 nM in data set [3].

For the compound `COc1ccc(S(=O)(=O)N2CCc3cccc(-c4ccc(C(=O)O)cc4)c32)cc1` [Compound 40, 4-[1-(4-methoxy-benzenesulfonyl)-2,3-dihydro-1H-indol-7-yl]-benzoic acid], the melting point is 130.3 to 132.1 °C. Further, in data set [1] (setting [5]), the IC50 fell in the range of 100 to 700 nM.

`COc1ccc(S(=O)(=O)N2CCc3cccc(-c4ccccn4)c32)cc1` [Compound 36, 1-(4-methoxy-benzenesulfonyl)-7-pyridin-2-yl-2,3-dihydro-1H-indole] returned a melting point of 195.1 to 197 °C. Also, the IC50 in data set [1] (setting [5]) lay within 1 to 99 nM.

Consider `COc1ccc(S(=O)(=O)N2CCc3cccc(-c4ccc(C(F)(F)F)cc4)c32)cc1` [Compound 34, 1-(4-methoxy-benzenesulfonyl)-7-(4-trifluoromethyl-phenyl)-2,3-dihydro-1H-indole], for which the melting point was 179.7 to 181 °C. Besides, the IC50 in data set [1] (setting [5]) lay in the range of 100 to 700 nM.

Regarding `COc1ccc(S(=O)(=O)N2CCc3cccc(-c4ccc(F)c(F)c4)c32)cc1` [Compound 21, 7-(3,4-difluoro-phenyl)-1-(4-methoxy-benzenesulfonyl)-2,3-dihydro-1H-indole], the melting point was 180.2 to 181.4 °C. In data set [1] (setting [5]), the IC50 lay within 1 to 99 nM.

`COc1ccc(S(=O)(=O)N2CCc3cccc(-c4ccc(F)nc4)c32)cc1` [Compound 25, 7-(6-fluoro-pyridin-3-yl)-1-(4-methoxy-benzenesulfonyl)-2,3-dihydro-1H-indole] returned a melting point of 139.8 to 141.7 °C. In addition, the IC50 in data set [1] (setting [5]) was in the range of 100 to 700 nM.

(Values after patent US8119683B2, “Aryl substituted sulfonamide compounds and their use as anticancer agents” (Taipei Medical University, priority 2009, dated 2012).)
